# US7537906B2, “Apoptosis inducer and method of screening for a substance inhibiting acylated homoserine lactone” (priority 2003, dated 2009)
# Columns and labels:
# Type in all cases: cell-based, human
# [1] = test system: ERK; assay: MAP kinase activity by Western blot in CaCo-2 cells: phosphorylated ERK
# Method: (§1) A CaCo-2 carcinoma cell line of human colon cancer was purchased from American Type Culture Collection (ATCC), and cultured at 37° C. in the presence of 5% CO2 using a DMEM medium containing 10% FCS, 1% NEAA and 1% P/S (100 units/ml penicillin and 100 μg/ml streptomycin).
# (§2) 6×10^5 CaCo-2 cells were inoculated per dish using 6 cm dishes (NUNC), washed twice with phosphate buffered saline (PBS) (-), and then cultured in a serum-free DMEM medium containing 1% NEAA for 24 hours. Subsequently, at a final concentration of 100 μM, homoserine lactone hydrochloride and N-(3-oxododecanoyl)-L-homoserine lactone were each added, and then each solution was allowed to react for 10 minutes. Furthermore, purified acylated homoserine lactone used herein had been dissolved in DMSO in a concentration 400 times higher than the target final concentration, and then subjected to filter sterilization (φ 0.22 μm). As a control, DMSO with a final concentration of 0.25% was used. In addition, α-tubulin was used as an internal standard.
# (§3) After reaction, the product was washed twice with cold PBS (-), and then frozen at −80° C. The cells were thawed on ice. 200 μl of a lysis buffer (50 mM HEPES, pH 7.5, 50 mM NaCl, 1 mM EDTA, 1.5 mM MgCl2, 1% Triton X-100, 10% glycerin, 10 mM sodium pyrophosphate, 1 mM Na3VO4, 100 mM NaF, 1 mM PMSF, 10 μg/ml aprotinin and 10 μg/ml leupeptin) was added to the cells, and then the cells were scraped off using a scraper. The cells were allowed to stand on ice for 20 minutes, and then centrifuged at 14000 rpm at 4° C. for 15 minutes, thereby collecting the supernatant. Concentration of the collected protein was measured, and then the protein equivalent to 50 μg was subjected to SDS-PAGE. After electrophoresis, the product was blotted on a PVDF membrane. When phosphorylated ERK, JNK, p38 and Akt were measured, blocking was carried out with 0.1% Tween 20 (TBS-T) containing 5% skim milk/Tris-buffered saline. As primary antibodies, an anti-phospho-p44/42 MAP kinase antibody, an anti-phospho-SAPK/JNK antibody, an anti-phospho-p38 MAP kinase antibody, and an anti-phospho-Akt ([…]) antibody were each used. As a secondary antibody, an HRP-labeled anti-rabbit IgG antibody was used. For the α-tubulin used as an internal standard, blocking was carried out with 5% bovine serum albumin (BSA)/TBS-T, and an anti-α-tubulin (Ab-1) antibody and an HRP-labeled anti-mouse IgG antibody were used as a primary antibody and a secondary antibody, respectively. For band detection, Renaissance™ Western Blot Chemiluminescence […] Reagent Plus (NEN) or Western Blotting Luminol Reagent (SANTA CRUZ BIOTECHNOLOGY) was used.
# (§4) After cell culture, MAP kinase activity and Akt activity were analyzed by Western blot in a manner similar to that used in (1), except that N-(3-oxododecanoyl)-L-homoserine lactones in final concentrations of 0 μM (0.25% DMSO), 1 μM, 10 μM, 30 μM and 100 μM were each added and each solution was allowed to react for 10 minutes (FIG. 8).
# (§5) After cell culture, N-(3-oxododecanoyl)-L-homoserine lactone with final concentrations of 30 μM and 100 μM were added. For each case, MAP kinase activity and Akt activity were measured by Western blot in a manner similar to that in (1), except for carrying out stimulation with acylated homoserine lactone in a short time course of 0, 5, 10, 30 and 60 minutes (FIG. 11), and in a long time course of 0, 10 minutes, 60 minutes, 2 hours, 4 hours, 6 hours, 8 hours and 10 hours (FIG. 12). In the case of stimulation at 30 μM, both ERK and p38 activities increased with a peak at 10 minutes. However, while ERK activity returned to the base level within 30 minutes, p38 activity lasted until 4 hours after stimulation. The inhibition of Akt activity in the case of stimulation at 30 μM peaked at 5 minutes and lasted until 60 minutes after stimulation, and returned to the base level within 2 hours. ERK activation took place with two steps in the case of stimulation at 100 μM. […]
# [2] = test system: p38; assay: MAP kinase activity by Western blot in CaCo-2 cells: phosphorylated p38
# Method: as §1, §2, §3, §4, §5
# [3] = test system: CaCo-2 cells; assay: Evaluation of viability by Trypan blue staining; settings: 12 hours of culture
# Method: 2×10^5 CaCo-2 cells were inoculated in a 3.5 cm dish (NUNC), washed twice with PBS (-), and then cultured in a serum-free DMEM medium containing 1% NEAA for 24 hours. Various agents [N-(3-oxododecanoyl)-L-homoserine lactones with final concentrations between 1 and 100 μM] were added, followed by 12 hours of culture. 0.25% DMSO was used as a control. Subsequently, the supernatant and the cells removed from the dish using trypsin-EDTA (TE) were centrifuged at 800 rpm at room temperature for 5 minutes. The supernatant was removed, and then dilution was carried out with 200 μl of DMEM. 50 μl of the dilution was taken in an Eppen tube, an equivalent volume of Trypan blue stain was added, and then the cell count was measured using a hemacytometer. At this time, the sum of the dead cell count and the viable cell count to be measured was determined to be 200 cells or more.
# [4] = test system: Akt; assay: Akt activity (phospho-Akt) by Western blot in CaCo-2 cells; settings: stimulation at 10 μM
structure (smiles),measurement,setting,value
CCCCCCCCCC(=O)CC(=O)N[C@H]1CCOC1=O [N-(3-oxododecanoyl)-L-homoserine lactone],ERK activity increase,"[1]; 10 μM, 10 minutes",1.5 times
same,ERK activity increase,"[1]; 30 μM, 10 minutes",7.7 times
same,ERK activity increase,"[1]; 100 μM, 10 minutes",9.8 times
same,activation of ERK,"[1]; 100 μM, 10 minutes",promoted
same,concentration at which levels of phosphorylated ERK significantly increased,[1]; 10 minutes,≥ 10 µM
same,time for ERK activity to return to the base level,[1]; stimulation at 30 μM,≤ 30 min
same,time of peak ERK activity,[1]; stimulation at 30 μM,10 min
same,"time at which ERK activity began to increase, second step",[1]; stimulation at 100 μM,4 h
same,"time for ERK activity to return to the base level, first step",[1]; stimulation at 100 μM,≤ 2 h
same,"time for ERK activity to return to the base level, second step",[1]; stimulation at 100 μM,≤ 10 h
same,"time of peak ERK activity, first step",[1]; stimulation at 100 μM,5 min
same,"time of peak ERK activity, second step",[1]; stimulation at 100 μM,8 h
same,p38 activity increase,"[2]; 10 μM, 10 minutes",3.2 times
same,p38 activity increase,"[2]; 30 μM, 10 minutes",4.4 times
same,activation of p38,"[2]; 100 μM, 10 minutes",promoted
same,p38 activity increase,"[2]; 100 μM, 10 minutes",5.4 times
same,concentration at which levels of phosphorylated p38 significantly increased,[2]; 10 minutes,≥ 10 µM
same,p38 activity lasted until (after stimulation),[2]; stimulation at 30 μM,4 h
same,time of peak p38 activity,[2]; stimulation at 30 μM,10 min
same,p38 activity lasted until (after stimulation),[2]; stimulation at 100 μM,8 h
same,time of peak p38 activation,[2]; stimulation at 100 μM,5 min
same,viability,[3]; 1 μM,94%
same,viability,[3]; 10 μM,90%
same,viability,[3]; 30 μM,55%
same,viability,[3]; 100 μM,51%
same,concentration at which viability was significantly decreased,[3],≥ 30 µM
same,inhibition of Akt activity lasted until (after stimulation),[4],6 h
